# In patent US10544138B2, “Tricyclic kinase inhibitors of MELK and methods of use” (Dana-Farber Cancer Institute, Inc., priority 2015, dated 2020):
# Target: T1, MELK (Homo sapiens, UniProt Q14680)
# Experiment: Z′-LYTE biochemical assay, MELK inhibition
# Parameters: purchased Life Technologies
# Details: 25 uM ATP concentration; read-out: MELK IC50 as determined by Z′-LYTE biochemical assay
# Method: The invention also provides methods for inhibiting MELK, comprising contacting MELK with a compound of the invention in an amount effective to inhibit MELK. In certain embodiments, the method is conducted in vitro. In certain embodiments, the method is conducted in vivo. Inhibition of MELK can be determined by the Z′-LYTE® biochemical assay from Life Technologies (Life Technologies Z′-LYTE® Screening Protocol and Assay Conditions, June 2012, incorporated herein by reference).
# Generally, IC50 against MELK was determined by Z′-LYTE® biochemical assay and are measured in nM at 25 uM ATP concentration.
# T1 sequence (Q14680 whole entry): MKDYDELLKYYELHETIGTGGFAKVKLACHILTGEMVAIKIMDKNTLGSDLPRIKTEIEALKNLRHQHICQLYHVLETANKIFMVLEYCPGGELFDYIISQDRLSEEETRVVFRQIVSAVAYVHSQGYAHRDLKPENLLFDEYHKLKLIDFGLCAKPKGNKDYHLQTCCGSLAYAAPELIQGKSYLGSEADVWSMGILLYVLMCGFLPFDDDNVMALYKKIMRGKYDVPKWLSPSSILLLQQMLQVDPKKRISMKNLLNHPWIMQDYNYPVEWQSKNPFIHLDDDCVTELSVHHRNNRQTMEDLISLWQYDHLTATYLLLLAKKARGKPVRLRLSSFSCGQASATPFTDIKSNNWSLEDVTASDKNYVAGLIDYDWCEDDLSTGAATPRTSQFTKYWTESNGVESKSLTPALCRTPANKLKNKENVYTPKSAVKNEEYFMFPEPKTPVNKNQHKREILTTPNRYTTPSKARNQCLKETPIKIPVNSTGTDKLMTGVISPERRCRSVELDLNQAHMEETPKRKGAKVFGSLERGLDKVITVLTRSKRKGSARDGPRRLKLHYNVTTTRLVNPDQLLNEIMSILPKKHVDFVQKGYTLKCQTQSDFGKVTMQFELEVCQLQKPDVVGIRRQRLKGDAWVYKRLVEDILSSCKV
row,IC50 [nM],SMILES
1,119,O=c1ccc2cnc3ccc(-c4ccc(CO)cc4)cc3c2n1-c1ccc(N2CCNCC2)c(C(F)(F)F)c1 [Compound 01-101]
2,2.16,O=C1NCc2cnc3ccc(-c4cc(Cl)c(O)c(Cl)c4)cc3c2N1c1ccc(N2CCNCC2)cc1 [Compound 01-100]
3,9.6,"CN(C)C[C@H]1CC[C@H](n2c(=O)ccc3cnc4ccc(-c5cc(Cl)c(O)c(Cl)c5)cc4c32)CC1 [Compound 01-087, 9-(3,5-dichloro-4-hydroxyphenyl)-1-(trans-4-((dimethylamino)methyl)cyclohexyl)benzo-[h][1,6]naphthyridin-2(1H)-one]"
4,1.85,"CN(C)C[C@H]1CC[C@H](n2c(=O)[nH]c3cnc4ccc(-c5cc(Cl)c(O)c(Cl)c5)cc4c32)CC1 [Compound 02-022, 8-(3,5-dichloro-4-hydroxyphenyl)-1-(trans-4-((dimethylamino)methyl)cyclohexyl)-1,3-dihydro-2H-imidazo[4,5-c]quinolin-2-one]"
5,4990,CN(C)C[C@H]1CC[C@H](N2C(=O)NCc3cnc4ccc(-c5ccc(NS(C)(=O)=O)cc5)cc4c32)CC1 [Compound 01-131]
6,27.1,"CN(C)C[C@H]1CC[C@H](N2C(=O)N(C)Cc3cnc4ccc(-c5cc(Cl)c(O)c(Cl)c5)cc4c32)CC1 [Compound 02-095, 9-(3,5-dichloro-4-hydroxyphenyl)-1-(trans-4-((dimethylamino)methyl)cyclohexyl)-3-methyl-3,4-dihydropyrimido[5,4-c]quinolin-2(1H)-one]"
7,146,O=c1ccc2cnc3ccc(-c4cccc(O)c4)cc3c2n1-c1ccc(N2CCNCC2)c(C(F)(F)F)c1 [Compound 01-092]
8,2.16,"CN(C)C[C@H]1CC[C@H](n2c(=O)n(C)c3cnc4ccc(-c5cc(Cl)c(O)c(Cl)c5)cc4c32)CC1 [Compound 02-084, 8-(3,5-dichloro-4-hydroxyphenyl)-1-(trans-4-((dimethylamino)methyl)cyclohexyl)-3-methyl-1,3-dihydro-2H-imidazo[4,5-c]quinolin-2-one]"
9,9.4,CN(C)Cc1ccc(N2C(=O)NCc3cnc4ccc(-c5cc(Cl)c(O)c(Cl)c5)cc4c32)cc1 [Compound 01-144]
10,2.8,CN(C)C[C@H]1CC[C@H](N2C(=O)N(C)Cc3cnc4ccc(-c5cc(Cl)c(O)c(Cl)c5)nc4c32)CC1 [Compound 02-096]
11,7.63,O=c1ccc2cnc3ccc(-c4cc(Cl)c(O)c(Cl)c4)cc3c2n1-c1ccc(N2CCNCC2)c(C(F)(F)F)c1 [Compound 01-045]
12,10.5,"CN(C)C[C@H]1CC[C@H](N2C(=O)NCc3cnc4ccc(-c5cc(Cl)c(O)c(Cl)c5)cc4c32)CC1 [Compound 01-091, 9-(3,5-dichloro-4-hydroxyphenyl)-1-(trans-4-((dimethylamino)methyl)cyclohexyl)-3,4-dihydropyrimido[5,4-c]quinolin-2(1H)-one]"
13,5.48,O=C1NCc2cnc3ccc(-c4cc(Cl)c(O)c(Cl)c4)cc3c2N1c1ccc(N2CCNCC2)c(C(F)(F)F)c1 [Compound 01-088]
14,386,CN1CCC(CN2C(=O)NCc3cnc4ccc(-c5cc(Cl)c(O)c(Cl)c5)cc4c32)CC1 [Compound 02-029]
15,404,CN(C)CC1CCC(CN2C(=O)NCc3cnc4ccc(-c5cc(Cl)c(O)c(Cl)c5)cc4c32)CC1 (stereo not drawn) [Compound 02-020]
16,294,CC(=O)N1CCN(c2ccc(-n3c(=O)ccc4cnc5ccc(-c6cc(Cl)c(O)c(Cl)c6)cc5c43)cc2C(F)(F)F)CC1 [Compound 01-071]

# System: Aurora kinases
# Experiment: Aurora kinase phosphorylation in mitotic cells, immunoblotting
# Type: cell-based
# Details: 30 min
# Method: (§1) Cell lysates were subjected to immunoblotting. […] The fluorescent signals of immunblotting were quantified using Image Studio Lite software (Licor Biosciences, Lincoln, Neb.). The signal of phosphorylated Aurora kinases was normalized to that of loading control (α-tubulin).
# Cell lysates were prepared for immunoblotting. In Panels B and C, THZ-4-63-1 inhibits H3T3 phosphorylation in HeLa (B) and U2OS (C) cells. Nocodazole arrested mitotic cells were treated with THZ-4-63-1 at the indicated doses for 30 min. […] Cell lysates were subjected to immunblotting. The signal of H3T3 phosphorylation was normalized to that of α-tubulin (right).
# (§2) We next proceeded to test if THZ-4-63-1 inhibits MELK activity in vivo. With a lack of established kinase substrates of MELK during mitosis, we used the auto-phosphorylation of MELK as a surrogate to indicate the activity of MELK. […] We then harvested nocodazole-arrested mitotic cells, and treated cells with increasing concentrations of THZ-4-63-1.
# We exposed paclitaxel- or nocodazole-arrested mitotic cells to the individual inhibitor for 30 min in the presence of MG132, and collected lysates for examining signaling involved in chromosome alignment. […] Recent studies unravel a novel role of Aurora B in phosphorylating Haspin^7, a major factor responsible for phosphorylating Histone H3 at Thr3^14. […]
row,SMILES,Phosphorylation of Aurora kinases
1,"Cc1cc(Nc2cc(N3CCN(C)CC3)nc(Sc3ccc(NC(=O)C4CC4)cc3)n2)n[nH]1 [VX-680, reference compound]",efficiently suppressed the auto-phosphorylation of Aurora kinases

# Target: T1, MELK
# Experiment: Electrophoretic mobility (auto-phosphorylation) of MELK in nocodazole-arrested mitotic cells, immunoblotting
# Type: cell-based
# Details: nocodazole-arrested mitotic cells (HeLa, MDA-MB-231), 30 min, increasing concentration
# Method: […] assays were performed with recombinant protein of the indicated mitotic kinase (left) and AMPK family kinases (right) in the presence of THZ-4-63-1. […] Cells were treated with nocodazole (100 ng/ml) for 18 h or not treated (Asyn., asynchronous). Nocodazole-arrested mitotic cells (M) were isolated via shake-off. The attached cells enriched in G2 phase (G2) were harvested. A portion of the mitotic cells were washed off nocodazole and released into G1 phase after 4 hours of incubation (G1). […] In Panel D, mitotic lysates were prepared from the indicated cells, and treated with λ-phosphatase at 30° C. In Panel E, nocodazole-arrested mitotic cells were treated with increasing concentration of THZ-4-63-1 for 30 min. Cell lysates were subjected to immunoblotting.
# as §1, §2
row,SMILES,Electrophoretic mobility of mitotic MELK
1,"O=C(O)c1ccc(Nc2ncc3c(n2)-c2ccc(Cl)cc2C(c2c(F)cccc2F)=NC3)cc1 [MLN8054, reference compound]",does not alter the electrophoretic mobility of MELK
2,"O=C1NC(=NCc2cccs2)S/C1=C\c1ccc2ncccc2c1 [RO-3306, reference compound]",does not change the electrophoretic mobility of MELK

# System: MDA-MB-468
# Experiment: Cell growth with paclitaxel combination in MDA-MB-468
# Type: cell-based, human
# Details: 2 nM
# Method: Mitotic cells were treated with THZ-4-63-1 at indicated concentrations for 4 h. Cells were collected for immunoblotting. Panel B contains time-lapse images of U2OS-(H2B-GFP) cells treated with THZ-4-63-1 (5 μM). […] Panel C contains blots showing proteasome-mediated degradation of Cyclin B1, Aurora B and MELK in THZ-4-63-1-induced mitotic slippage. Mitotic cells were treated as in Panel A with THZ-4-63-1 (5 μM), or MG132 (10 μM), or both for 4 h. Panel D contains a graph showing quantification of cell proliferation in the indicated breast cancer cell lines, which were treated with vehicle control or THZ-4-63-1 for one week (Top) and also contains bright-field images acquired from control cells or cells treated with THZ-4-63-1 (111 nM) (Bottom). […] Cells were treated with indicated drugs, and harvested in ten days for quantification of cell growth. The bold curve depicts the theoretic prediction of an additive action between paclitaxel and THZ-4-63-1.
# Because microtubule-targeting chemotherapy is the mainstay of treatment for many types of cancer including basal-like breast cancer, we asked if MELK inhibition could combine with drugs that impair microtubule dynamics. […]
row,SMILES,"Reduction of cell proliferation, paclitaxel alone"
1,"CC(=O)O[C@H]1C(=O)[C@@]2(C)[C@H]([C@H](OC(=O)c3ccccc3)[C@]3(O)C[C@H](OC(=O)[C@H](O)[C@@H](NC(=O)c4ccccc4)c4ccccc4)C(C)=C1C3(C)C)[C@]1(OC(C)=O)CO[C@@H]1C[C@@H]2O [paclitaxel, reference compound]",half reduction

# System: Histone H3 phosphorylation at Thr3
# Experiment: Histone H3 Thr3 phosphorylation in arrested mitotic cells, immunoblotting
# Type: cell-based
# Details: paclitaxel- or nocodazole-arrested mitotic cells, 30 min, with MG132
# Method: Cell lysates were prepared for immunoblotting. […] HeLa cells were treated with DMSO or THZ-4-63-1 (5 μM) for 4 h followed by 1 h treatment of MG132 (10 μM). Cells were fixed and stained with anti-H3T3ph and anti-CREST. […] Cells were treated as in FIG. 2, Panel D, and additionally treated with MG132 (10 μM) for 1 h before fixation. The histogram indicates the quantification of H3S10ph signal. […] MCF-10A cells stably expressing empty vector (EV) or MELK were fixed for immunostaining. Images were captured with identical exposure time. H3T3ph intensity was quantified by the use of ImageJ. […] Recombinant MELK protein (kinase domain) was incubated with recombinant Histone H3 for 30 min at 30° C. Samples were subjected to immunoblotting using the indicated antibodies. […] Cells stably expressing GFP-MELK were fixed by formaldehyde and stained with anti-H3S10ph. […] Asynchronized (Async.) or nocodazole-arrested mitotic cells were subjected to fractionation, with sample prepared for immunoblotting. Panels H and I are images showing that MELK inhibition impairs the localization of chromosome passenger complex (CPC), indicated by the immunofluorescence detecting Survivin (G) and Aurora B (H). In addition to the presence of doxycyclin or THZ-4-63-1, cells were treated with nocodazole (0.33 μM) and MG132 (10 μM) for 3 h before fixation.
# Cell lysates were prepared for immunoblotting. […]
row,SMILES,Histone H3 phosphorylation at Thr3
1,"Cc1cc(Nc2cc(N3CCN(C)CC3)nc(Sc3ccc(NC(=O)C4CC4)cc3)n2)n[nH]1 [VX-680, reference compound]",inhibition of the downstream Histone H3 phosphorylation at Thr3
